US5888971A, “Macrocyclic peptides useful in the treatment of thrombin related disorders” (Ortho Pharmaceutical Corporation, Inc., priority 1996, dated 1999)

How the values were obtained:
[1] = target: T1, human alpha-thrombin (Homo sapiens, UniProt P00734); assay: Thrombin-catalyzed hydrolysis of chromogenic substrate, Michaelis-Menten Ki; format: biochemical; details: 1 nM thrombin, 5-100 μM Spectozyme TH, 37° C., pH 7.4, Michaelis-Menten kinetics; for Ki: read-out: Thr Ki
T1 construct: commercial human alpha-thrombin (American Diagnostica); purchased American Diagnostica
Description: (§1) The compounds of the invention were tested for their ability to inhibit thrombin mediated hydrolysis.
Changes in absorbance at 405 nm were monitored (Softmax, Molecular Devices), upon addition of enzyme, both with and without inhibitor present at 37° C. over 30 minutes. […] Michaelis-Menton kinetics were applied to the initial reaction slopes using the program K Cat (Bio Metallics Inc.).

[2] = target: T2, Bovine type 1 trypsin (Bos taurus, UniProt P00760); assay: Trypsin-catalyzed hydrolysis of chromogenic substrate, Ki; format: biochemical; details: 3.2 U/ml trypsin, 0.1-0.3 mM Spectrozyme TRY; read-out: Trp Ki
T2 construct: purchased Sigma
T2 sequence (P00760 24-246): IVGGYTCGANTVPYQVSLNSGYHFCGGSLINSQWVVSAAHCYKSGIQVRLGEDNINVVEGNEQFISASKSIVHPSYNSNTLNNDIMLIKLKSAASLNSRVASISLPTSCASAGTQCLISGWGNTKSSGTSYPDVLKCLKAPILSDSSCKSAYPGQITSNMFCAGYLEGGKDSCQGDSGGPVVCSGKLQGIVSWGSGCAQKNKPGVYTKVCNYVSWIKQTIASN
Description: as §1
Trypsin-catalyzed hydrolysis rates were measured using the same method as the thrombin procedure.

[3] = target: T1, human alpha-thrombin; assay: Slow, tight-binding kinetics with thrombin (Ki-slow); format: biochemical; details: 0.1 nM thrombin, 50 μM Spectozyme TH, 25° C., 4 h; read-out: Thr Ki -slow
Description: Ki-slow was determined by measuring enzyme-catalyzed hydrolysis rates. […] The compound numbers in the table correspond to the examples described hereinafter.

[4] = target: thrombin (Homo sapiens, UniProt P00734); details: background section; cited from earlier work

Molecule	Ki [1] [nM]	Ki [2] [nM]	Ki [3] [nM]	Ki [4] [nM]	selectivity for thrombin over trypsin [4]	Thr Ki [1]
3S,6S,12R-N-[3-(12-BENZYL-2,5,11,14,20-PENTAOXO-23-THIA-4,10,13,19,24-PENTAAZATRICYCLO[19.2.1.3]-6,10-TETRACOSA-1(2H), 21-DIEN-3-YL)PROPYL]GUANIDINE [Compound 23]	1000 ± 400	66 ± 26				
5R,14R,18S,20aS-N-[3-(5-BENZYL-14-METHYI-4,7,13,16,17,20-HEXAOXOEICOSAHYDRO-3a,6,12,15,19-PENTAAZACYCLOPENTA-CYCLONONADECEN-18-YL)PROPYL]GUANIDINE TRIFLUOROACETIC ACID [Compound 21]	92 ± 46	22 ± 14	4.71 ± 1.51			
5R,15R,19S,21 AS-N-[3-(15-BENZHYDRYL-5-BENZYL-4,7,14,17,18,21-HEXAOXODOCOSAHYDRO-3a,6,13,16,20-PENTMZACYCLOPENTACYCLOEICOSEN-19-YL)PPROPYL]GUANIDINE TRIFLUOROACETIC ACID [Compound 19]	5.3 ± 2.6	2.5 ± 0.75				
5R, 2S, 18S-N-[3-(5-NAPTHALEN-2-YLMETHYL-4, 17, 16, 17, 20-PENTAOXOEICOSAHYDRO-3a, 6, 15, 19-TETRAAZACYCLOPENTACYCLONONADECEN-18-YL)PROPYL] GUANIDINE TRIFLUOROACETATE HYDRATE [Compound 6]	21 ± 5	6.8 ± 5				
6R, 19S, 22S-N-[3-(6-BENZYL-5, 8, 17, 18, 21-PENTAOXODOCOSAHYDRO-4a, 7, 16, 20-TETRAAZABENCBZOCYCLONONADECEN-19-YL) PROPYL] GUANIDINE TRIFLUOROACETIC ACID HYDRATE [Compound 5]	90 ± 8.6	85 ± 29				
N=C(N)NCCCC1NC(=O)CCCCCNC(=O)C(Cc2ccccc2)NC(=O)C1=O (centres unmarked) [Compound 18, N-[3-(3-BENZYL-2,5,6,9-TETRAOXO-1,4,8-TRIAZACYCLOTETRADEC-7-YL)PROPYL]GUANIDINE TRIFLUOROACETIC ACID]	3800 ± 200	310 ± 10				
N=C(N)NCCC[C@@H]1NC(=O)[C@@H]2CCCN2C(=O)[C@@H](NC=O)CNC(=O)/C=C/[C@H](Cc2ccc(O)cc2)NC(=O)[C@@H](Cc2ccccc2)NC(=O)C1=O [CtA, Cyclotheonamide A, reference compound]	170 ± 80	23000	4 ± 1.9	1 to 2	does not favor thrombin	
CN[C@H](Cc1ccccc1)C(=O)N1CCC[C@H]1C(=O)N[C@H](C=O)CCCN=C(N)N [N-Me-PPAC, N-Me PPACK aldehyde, reference compound]	10					
[20aR-(20aR, 5R, 18S)]-N-[3-(5-PHENYLETHYL-17-HYDROXY-4, 7, 16, 20-TETRAOXOEICOSAHYDRO-3a, 6, 15, 19-TETRA-AZACYCLONONADECANE-18-YL) PROPYIL] GUANIDINE [Compound 22]						no activity at 50 μM
